# Assay results: US4820695A, “C-20-dihydro-deoxy-(cyclic amino)-derivatives of macrolide antibiotics” (priority 1987, dated 1989)
# Where “and” joins values, the source holds several entries; their conditions need not be identical. Equal values may be shown once. Read-outs that look alike come from different tables or passages of the source.
# Experiments:
# Staphyloccus aureus X1.1 = assay: MIC, standard agar-dilution assay (Table IX); assay type: cell-based, Staphylococcus aureus; details: Staphylococcus aureus, read-out: MIC
# [1] = test system: Staphylococcus aureus V41; assay: MIC, standard agar-dilution assay (Table IX); assay type: cell-based; details: Staphylococcus aureus V41, Penicillin-resistant strain, read-out: MIC
# [2] = test system: Staphylococcus aureus X400; assay: MIC, standard agar-dilution assay (Table IX); assay type: cell-based; details: Staphylococcus aureus X400, Methicillin-resistant strain, read-out: MIC
# [3] = test system: Staphylococcus aureus S13E; assay: MIC, standard agar-dilution assay (Table IX); assay type: cell-based; details: Staphylococcus aureus, S13E
# [4] = test system: Staphylococcus epidermidis EPI1; assay: MIC, standard agar-dilution assay (Table IX); assay type: cell-based; details: Staphylococcus epidermidis EPI1; agar-dilution; read-out: MIC
# [5] = test system: Staphylococcus epidermidis 222; assay: MIC, standard agar-dilution assay (Table IX); assay type: cell-based; details: read-out: MIC
# [6] = test system: Streptococcus pyogenes C203; assay: MIC, standard agar-dilution assay (Table IX); assay type: cell-based; details: read-out: MIC
# [7] = test system: Streptococcus pneumoniae Park I; assay: MIC, standard agar-dilution assay (Table IX); assay type: cell-based; details: Streptococcus pneumoniae Park I; agar-dilution; read-out: MIC
# [8] = test system: Streptococcus Group D X66; assay: MIC, standard agar-dilution assay (Table IX); assay type: cell-based; details: read-out: MIC
# [9] = test system: Streptococcus Group D 2041; assay: MIC, standard agar-dilution assay (Table IX); assay type: cell-based; details: GROUPD2041, read-out: MIC
# [10] = test system: Haemophilus influenzae C.L.; assay: MIC, standard agar-dilution assay (Table IX); assay type: cell-based; details: Ampicillin-sensitive strain, read-out: MIC
# [11] = test system: Haemophilus influenzae 76; assay: MIC, standard agar-dilution assay (Table IX); assay type: cell-based; details: Haemophilus influenzae 76, Ampicillin-resistant strain, read-out: MIC
# Escherichia coli N10 = assay: MIC, standard agar-dilution assay (Table IX); assay type: cell-based; details: read-out: MIC
# Escherichia coli EC14 = assay: MIC, standard agar-dilution assay (Table IX); assay type: cell-based; details: read-out: MIC
# Escherichia coli TEM = assay: MIC, standard agar-dilution assay (Table IX); assay type: cell-based; details: read-out: MIC
# Klebsiella X26 = assay: MIC, standard agar-dilution assay (Table IX); assay type: cell-based; details: read-out: MIC
# [12] = test system: Mycoplasma gallisepticum 29C; assay: MIC, broth-dilution microtiter test (Table X); assay type: cell-based; details: Mycoplasmoides gallisepticum, read-out: MIC
# Text: (§1) The MIC's in Table X were obtained using conventional broth-dilution microtiter tests.
# [13] = test system: Mycoplasma hyopneumoniae S5972; assay: MIC, broth-dilution microtiter test (Table X); assay type: cell-based; details: Mesomycoplasma hyopneumoniae, read-out: MIC
# Text: as §1
# Mycoplasma hyorhinis 29E = assay: MIC, broth-dilution microtiter test (Table X); assay type: cell-based; details: read-out: MIC
# Text: as §1
# Mycoplasma synoviae 40A = assay: MIC, broth-dilution microtiter test (Table X); assay type: cell-based; details: Mycoplasmopsis synoviae, read-out: MIC
# Text: as §1
# [14] = test system: Pasteurella hemolytica 22C; assay: MIC, broth-dilution microtiter test (Table X); assay type: cell-based; details: read-out: MIC
# Text: as §1
# [15] = test system: Pasteurella multocida 17E; assay: MIC, broth-dilution microtiter test (Table X); assay type: cell-based; details: Bovine isolate, read-out: MIC
# Text: as §1
# [16] = test system: Pasteurella multocida 60A; assay: MIC, broth-dilution microtiter test (Table X); assay type: cell-based; details: Avian isolate, read-out: MIC
# Text: as §1
# [17] = test system: Staphylococcus aureus 19C; assay: MIC, broth-dilution microtiter test (Table X); assay type: cell-based
# Text: as §1
# Streptococcus sp. 19F = assay: MIC, broth-dilution microtiter test (Table X); assay type: cell-based; details: read-out: MIC
# Text: as §1
# [18] = test system: Streptococcus pyogenes C203; assay: ED50 in mice experimentally infected with S. pyogenes C203 (Table XI); assay type: in vivo; details: Streptococcus pyogenes, doses given 1 and 4 hours postinfection, read-out: ED50
# Method in brief: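 Mice infected with S. pyogenes C203 received two doses of compound, 1 and 4 h post-infection. ED50 is the dose in mg/kg (per dose, ×2) protecting 50% of animals.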
# Pasteurella multocida [19] = assay: Pasteurella infection in one-day-old chicks, subcutaneous administration (Table XII); assay type: in vivo; details: Administered subcutaneously, 30 mg/kg × 2, 1 and 4 hours post-challenge
# Method in brief: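 One-day-old chicks were challenged subcutaneously with 0.1 ml of a 10^-4 dilution of a 20-h tryptose broth culture of avian P. multocida. Compounds were then given by subcutaneous injection at 30 mg/kg, at 1 and 4 hours post-challenge.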
# Pasteurella multocida [20] = assay: Pasteurella infection in one-day-old chicks, medicated drinking water (Table XIII); assay type: in vivo; details: Administered in the available drinking water at 2 g/gal
# Method in brief: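 One-day-old chicks were challenged subcutaneously with 0.1 ml of a 10^-4 dilution of a 20-hour tryptose broth culture of avian P. multocida. Compound was given in drinking water at 2 g/gal, available from 4 to 20 hours before challenge and throughout the 3-day test period.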
# [21] = Blood and tissue levels after a single injection; assay type: in vivo
# Text: A special advantage of this invention is that certain of the compounds are effective when administered as a single injection.
smiles,measurement,setting,value
"CCC1OC(=O)CC(O)C(C)C(OC2OC(C)C(O)C(N(C)C)C2O)C(CCN2C[C@H](C)C[C@H](C)C2)CC(C)C(=O)C=CC(C)=CC1COC1OC(C)C(O)C(OC)C1OC (stereo partly drawn) [Compound D34, 20-DH-DO-20-(cis-3,5-dimethylpiperidine-1-yl)desmycosin]",MIC,Staphyloccus aureus X1.1,1 µg/mL
same,MIC,[1],1 µg/mL
same,MIC,[2],1 µg/mL
same,MIC,[3],0.5 µg/mL
same,MIC,[4],0.5 µg/mL
same,MIC,[5],0.25 µg/mL
same,MIC,[6],0.5 µg/mL
same,MIC,[7],2 µg/mL
same,MIC,[8],4 µg/mL
same,MIC,[9],8 µg/mL
same,MIC,[10],16 µg/mL
same,MIC,[11],4 µg/mL
same,MIC,Escherichia coli N10,128 µg/mL
same,MIC,Escherichia coli EC14,128 µg/mL
same,MIC,Escherichia coli TEM,32 µg/mL
same,MIC,Klebsiella X26,64 µg/mL
same,MIC,[12],0.195 µg/mL
same,MIC,[13],0.78 µg/mL
same,MIC,Mycoplasma hyorhinis 29E,12.5 µg/mL
same,MIC,Mycoplasma synoviae 40A,0.78 µg/mL
same,MIC,[14],6.25 µg/mL
same,MIC,[15],12.5 µg/mL
same,MIC,[16],12.5 µg/mL
same,MIC,[17],3.12 µg/mL
same,MIC,Streptococcus sp. 19F,3.12 µg/mL
same,ED50,"[18]; C203, Oral",7.98 mg/kg
same,ED50,"[18]; C203, sc, Subcutaneous",< 0.625 mg/kg
same,Number of Deaths/Number Treated,Pasteurella multocida [19],3/10
same,Number of Deaths/Number Treated,Pasteurella multocida [20],3/10 and 0/10 and 1/10 and 6/10
same,measurable blood and tissue levels of the drug,[21],prolonged measurable blood and tissue levels of the drug for as long as seven days
